Measurements from patent US20260309717A1, “PROXIMITY INDUCING SYSTEM AND USES THEREOF” (SORBONNE UNIVERSITE, priority 2022, published 2026).

Target: T1, FKBP-caged^FIREtag / FRB-^FIREmate (Halorhodospira halophila, UniProt P16113, A30V/C69G/D97P/F96I, form not given/G21E/G25R/K17N/M100R/M109L/Q41L/Q99S/S72T/T101G/V83A/Y94W/Y98T)
T1 construct: FKBP-caged FIREtag (PYP 2-114 C69G cage) and FRB-FIREmate co-expressed in HEK293T cells
T1 sequence (P16113 1-114 A30V/C69G/D97P/F96I/G21E/G25R/K17N/M100R/M109L/Q41L/Q99S/S72T/T101G/V83A/Y94W/Y98T): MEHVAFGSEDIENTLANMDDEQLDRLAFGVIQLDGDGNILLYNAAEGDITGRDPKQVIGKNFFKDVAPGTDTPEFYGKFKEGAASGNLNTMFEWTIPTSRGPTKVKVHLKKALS
Assay: Flow cytometry of ternary assembly formation with caged^FIREtag, HEK293T cells
Type: cell-based
Excerpt: FIG. 10 is a graph illustrating the fluorogen-dependent interaction between caged ^FIREtag and ^FIREmate. […] Data represent the mean values±SD of 3 independent experiments.
Although, as indicated above, no self-complementation between ^FIREtag and ^FIREmate could be observed in the absence of fluorogen (see FIG. 3), a caged FIREt was designed to prevent any interaction with ^FIREmate in the absence of fluorogen, even at high expression levels. To cage ^FIREtag, the N-terminal domain 2-114 of Halorhodospira halophila photoactive yellow protein (PYP) C69G (corresponding to SEQ ID NO: 21) was fused to ^FIREtag. The intramolecular interaction between ^FIREtag and the N-terminal domain 2-114 of H. halophila PYP C69G induces the folding of the caged^FIREtag protein, thus preventing any intermolecular interaction of the caged^FIREtag with ^FIREmate. The fusion proteins FKBP-caged^FIREtag and FRB-^FIREmate were co-expressed in HEK293T cells. The cells were then treated with the fluorogens HBR-2,5DM at various concentrations (1, 5, 10, 25 or 50 μM as indicated), in the presence or absence of rapamycin.

Cc1cc(/C=C2\SC(=S)NC2=O)c(C)cc1O [HBR-2,5DM, (Z)-5-(4-hydroxy-2,5-dimethylbenzylidene)-2-thioxo-1,3-thiazolidin-4-one]
formation of fluorescent ternary assembly with caged^FIREtag and ^FIREmate (1, 5, 10, 25 or 50 μM, even in absence of rapamycin): could still form a fluorescent ternary assembly | concentration required to reach full ternary assembly with caged^FIREtag (absence of rapamycin): higher concentrations of HBR-2,5DM were required to reach full ternary assembly in absence of rapamycin
